PubChem BioAssay (NCI)
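Exposure lasted 48 hours, with cells grown in 96-well plates and compounds tested at five concentrations. Definition used: TGI = concentration required for complete inhibition of growth.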

Experiments:
Test in all cases: DTP human tumour cell line panel, 48 h
TK-10 renal = test system: TK-10 renal
PC-3 prostate = test system: PC-3 prostate
M14 melanoma = test system: M14 melanoma
SNB-19 CNS = test system: SNB-19 CNS
T-47D breast = test system: T-47D breast
OVCAR-8 ovarian = test system: OVCAR-8 ovarian
NCI/ADR-RES ovarian = test system: NCI/ADR-RES ovarian
KM12 colon = test system: KM12 colon
BT-549 breast = test system: BT-549 breast
MALME-3M melanoma = test system: MALME-3M melanoma
SK-MEL-5 melanoma = test system: SK-MEL-5 melanoma
K-562 leukemia = test system: K-562 leukemia
A549 NSCLC = test system: A549 NSCLC
HCC-2998 colon = test system: HCC-2998 colon
HCT-116 colon = test system: HCT-116 colon
NCI-H460 lung = test system: NCI-H460 lung
SK-OV-3 ovarian = test system: SK-OV-3 ovarian
SNB-75 CNS = test system: SNB-75 CNS
NCI-H522 lung = test system: NCI-H522 lung
SK-MEL-28 melanoma = test system: SK-MEL-28 melanoma

Row | Structure (SMILES) | TGI (TK-10 renal) [µM] | TGI (PC-3 prostate) [µM] | TGI (M14 melanoma) [µM] | TGI (SNB-19 CNS) [µM] | TGI (T-47D breast) [µM] | TGI (OVCAR-8 ovarian) [µM] | TGI (NCI/ADR-RES ovarian) [µM] | TGI (KM12 colon) [µM] | TGI (BT-549 breast) [µM] | TGI (MALME-3M melanoma) [µM] | TGI (SK-MEL-5 melanoma) [µM] | TGI (K-562 leukemia) [µM] | TGI (A549 NSCLC) [µM] | TGI (HCC-2998 colon) [µM] | TGI (HCT-116 colon) [µM] | TGI (NCI-H460 lung) [µM] | TGI (SK-OV-3 ovarian) [µM] | TGI (SNB-75 CNS) [µM] | TGI (NCI-H522 lung) [µM] | TGI (SK-MEL-28 melanoma) [µM]
1 | O=C1NC(=S)NC(=O)C1=Cc1ccc(-c2ccccc2)cc1 | > 100 | > 100 | > 100 | > 100 | > 100 | > 100 | > 100 | > 100 | > 100 | > 100 | > 100 | > 100 | > 100 | > 100 | > 100 | > 100 | > 100 |  |  | 
2 | O=C(O)C1CCCCN1C(=O)Cc1c[nH]c2ccccc12 (stereo not given) | > 100 | > 100 | > 100 | > 100 | > 100 | > 100 | > 100 | > 100 | > 100 | > 100 |  | > 100 | > 100 | > 100 | > 100 | > 100 | > 100 | > 100 | > 100 | > 100
3 | O=C1C2Cc3c(n(C(=O)c4ccccc4)c4ccccc34)CC2C(=O)N1c1ccc(Nc2ccc(N3C(=O)C4Cc5c(n(C(=O)c6ccccc6)c6ccccc56)CC4C3=O)cc2)cc1 (stereo not given) | > 100 | > 100 | > 100 | > 100 | > 100 | > 100 | > 100 | > 100 | > 100 | > 100 | > 100 | > 100 | > 100 | > 100 | > 100 | > 100 | > 100 | > 100 | > 100 | > 100
4 | CC1(C)S[C@H](CN)N[C@H]1C(=O)OC(c1ccccc1)c1ccccc1 | > 100 | 92.4 | > 100 |  | 74.3 | > 100 | > 100 | > 100 | 92.2 | 83.8 | 31.4 | 55.8 | > 100 | 36 | > 100 |  | > 100 | > 100 | 83.4 | > 100
5 | NC(=O)NNCc1c(-c2ccccc2)no[n+]1[O-] | > 100 | > 100 | > 100 | > 100 | > 100 | > 100 | > 100 | > 100 | > 100 | > 100 | > 100 | > 100 | > 100 | > 100 | > 100 | > 100 | > 100 | > 100 | > 100 | > 100
6 | CCO/C(O)=C(/C(=N)N1CCCC1)C(=O)Nc1cccc(Cl)c1 | > 100 | > 100 | > 100 | > 100 | > 100 | > 100 | > 100 | > 100 | > 100 | > 100 |  | > 100 | > 100 | > 100 | > 100 | > 100 | > 100 | > 100 | > 100 | > 100
7 | CC(C)[Si]1(C(C)C)OCC2OC(n3c(C(=O)c4ccccc4)cc(=O)[nH]c3=O)CC2O[Si](C(C)C)(C(C)C)O1 (stereo not given) | 9.23 | 6.22 | 14.4 | 22.4 | 16 | 4.43 | 26.8 | 8.51 | 16.5 | 13.1 | 14 | > 100 | 20.5 | 3.41 | 9.95 | 15.9 | 27.2 | 6.7 | 3.55 | 15
8 | COc1cc(C2c3[nH]c4ccccc4c3[C@@H](Nc3ccc(C#N)cc3)[C@H]3COC(=O)N23)cc(OC)c1O (stereo not given in full) | 0.866 | 6.6 | 1.58 | > 10 | 3.5 | 0.933 | > 10 |  | 0.796 | 1.2 | 0.321 | > 10 | 0.421 | 0.704 | 2.11 | 0.342 | 1.04 | 0.763 | 0.547 | 2.73
9 | COC(=O)C1=C(OC(=O)/C=C/c2ccc(Cl)cc2)C(C(=O)OC)[C@]2(O)[C@@H](C(=O)OC)[C@H]1C[C@@H](c1ccccc1)[C@@H]2C(=O)OC (stereo not given in full) | > 100 | > 47.6 | 49.8 | > 95.9 | > 100 | > 30.7 | > 28.8 | > 100 | > 28.5 | 20.4 | 12.7 | > 100 | > 100 | 46.9 | > 29.4 | > 100 | > 100 | > 100 | 5.83 | > 100
10 | COC(=O)n1c(C)c(C=O)c2ccc(OC)cc21 | 67.6 | > 100 | > 100 | > 100 | > 100 | > 100 | > 100 | 89.9 | 73.2 | > 100 | 57.5 | > 100 | > 100 | 55.8 | > 100 | > 100 | > 100 | > 100 | > 100 | 
11 | CC1(C(=O)O)C[C@](C)(C(=O)OCc2ccccc2)C[C@](C)(C(=O)OCc2ccccc2)C1 (stereo not given in full) | > 100 | > 100 | > 100 | > 100 | > 100 | > 100 | > 100 | 99.5 | 65.6 | > 100 | > 100 | > 100 | > 100 | 79.8 | 57.9 | 57.5 | > 100 | 79.7 | 60 | > 100
12 | CCCCCCNC(=S)N/N=C(\C)c1ccccn1 | 42 | 24.1 | 6.86 | 21 | 23.4 | 10.2 | 30.6 | 8.97 | 16.8 | 16.8 | 14.7 |  | 14.6 | 20.9 | 15.9 | 8.81 | 21.6 | 23.9 | 19.8 | 18.5
